Experimental data as given in US11186585B2 (priority 2018, dated 2021).
Several values for one entry are separate records, joined by “and”; a condition that tells them apart may be missing. Equal entries are not always repeated. Structures can show the parent of a compound that is named as a salt.

Assays:
Sprague-Dawley rats = assay: Antinociceptive activity, cold ethanol tail-flick test after oral gavage; type: in vivo, rat; details: for Analgesia (rat): oral gavage in sesame oil, 60 uM/kg, one dose, tail-flick at −20° C., cutoff 40 seconds; for analgesia in rats, in words: given orally, compared with equivalent dose of Nalbuphine (parent opioid)
[1] = Stability in the simulated gastro-intestinal fluid (sGIF); details: 0.5% pepsine in 0.1N aqueous HCl, 37° C.; acceptance: NLT 80% of the derivative still intact after 4 hrs
[2] = Stability in human plasma; details: 37° C., acceptance criteria: NLT than 20% of hydrolysis after 4 hrs
rats = assay: Randall-Selitto test after SC dose; type: in vivo, rat; details: NB-33.HCl 3.9 mg/kg; for Randall-Selitto (g), individual animal: NB.HCl 3 mg/kg; for Randall-Selitto (g), Mean: mean of 5, NB.HCl 3 mg/kg
Excerpt: FIG. 13 illustrate in the graphical form the results for 1310 NB-33, marked 1310, in comparison to the base NB compound NB, marked 1320 in FIG. 13.

CC(C)=CCC/C(C)=C/COc1ccc2c3c1OC1C(O)CCC4(O)C(C2)N(CC2CCC2)CCC314 (stereo not shown) [NB-20, (E)-3-(cyclobutylmethyl)-9-((3,7-dimethylocta-2,6-dien-1-yl)oxy)-1,2,3,4,5,6,7,7a-octahydro-4aH-4,12-methanobenzofuro[3,2-e]isoquinoline-4a,7-diol]
Analgesia (rat) (Sprague-Dawley rats): No
Stable in sGIF [1]: No
Stable in plasma [2]: No

CC(C)=CCC/C(C)=C/CC/C(C)=C/COc1ccc2c3c1OC1C(O)CCC4(O)C(C2)N(CC2CCC2)CCC314 (stereo not shown) [NB-28, 3-(cyclobutylmethyl)-9-(((2E,6E)-3,7,11-trimethyldodeca-2,6,10-trien-1-yl)oxy)-1,2,3,4,5,6,7,7a-octahydro-4aH-4,12-methanobenzofuro[3,2-e]isoquinoline-4a,7-diol]
Analgesia (rat) (Sprague-Dawley rats): No
Stable in sGIF [1]: No
Stable in plasma [2]: No

C=CCCCCCCCCC(=O)Oc1ccc2c3c1OC1C(O)CCC4(O)C(C2)N(CC2CCC2)CCC314 (stereo not shown) [NB-31, 3-(cyclobutylmethyl)-4a,7-dihydroxy-2,3,4,4a,5,6,7,7a-octahydro-1H-4,12-methanobenzofuro[3,2-e]isoquinolin-9-yl undec-10-enoate]
analgesia in rats, in words (Sprague-Dawley rats): no analgesia
Analgesia (rat) (Sprague-Dawley rats): Inactive
Stable in sGIF [1]: Yes
Stable in plasma [2]: No

CC(C)=CCC/C(C)=C/C(=O)Oc1ccc2c3c1OC1C(O)CCC4(O)C(C2)N(CC2CCC2)CCC314 (stereo not shown) [NB-32, 3-(cyclobutylmethyl)-4a,7-dihydroxy-2,3,4,4a,5,6,7,7a-octahydro-1H-4,12-methanobenzofuro[3,2-e]isoquinolin-9-yl (E)-3,7-dimethylocta-2,6-dienoate]
analgesia in rats, in words (Sprague-Dawley rats): no analgesia
Analgesia (rat) (Sprague-Dawley rats): Inactive
Stable in sGIF [1]: Yes
Stable in plasma [2]: No

CC(C)C(=O)Oc1ccc2c3c1OC1C(O)CCC4(O)C(C2)N(CC2CCC2)CCC314 (stereo not shown) [NB-46, 3-(cyclobutylmethyl)-4a,7-dihydroxy-2,3,4,4a,5,6,7,7a-octahydro-1H-4,12-methanobenzofuro[3,2-e]isoquinolin-9-yl isobutyrate]
Analgesia (rat) (Sprague-Dawley rats): No
Stable in sGIF [1]: Yes
Stable in plasma [2]: Yes

CC(C)=CC(=O)Oc1ccc2c3c1OC1C(O)CCC4(O)C(C2)N(CC2CCC2)CCC314 (stereo not shown) [NB-51, 3-(cyclobutylmethyl)-4a,7-dihydroxy-2,3,4,4a,5,6,7,7a-octahydro-1H-4,12-methanobenzofuro[3,2-e]isoquinolin-9-yl 3-methylbut-2-enoate]
Analgesia (rat) (Sprague-Dawley rats): Inactive
Stable in sGIF [1]: Yes
Stable in plasma [2]: No

C/C=C(\C)C(=O)Oc1ccc2c3c1OC1C(O)CCC4(O)C(C2)N(CC2CCC2)CCC314 (stereo not shown) [NB-52, 3-(cyclobutylmethyl)-4a,7-dihydroxy-2,3,4,4a,5,6,7,7a-octahydro-1H-4,12-methanobenzofuro[3,2-e]isoquinolin-9-yl (E)-2-methylbut-2-enoate]
analgesia in rats, in words (Sprague-Dawley rats): no analgesia
Analgesia (rat) (Sprague-Dawley rats): Inactive
Stable in sGIF [1]: Yes
Stable in plasma [2]: No

CC=C(OC)C(=O)Oc1ccc2c3c1OC1C(O)CCC4(O)C(C2)N(CC2CCC2)CCC314 (stereo not shown) [NB-58, 3-(cyclobutylmethyl)-4a,7-dihydroxy-2,3,4,4a,5,6,7,7a-octahydro-1H-4,12-methanobenzofuro[3,2-e]isoquinolin-9-yl 2-methoxybut-2-enoate]
Analgesia (rat) (Sprague-Dawley rats): No
Stable in sGIF [1]: No
Stable in plasma [2]: No

C/C=C/C=C/C(=O)Oc1ccc2c3c1OC1C(OC(C)=O)CCC4(O)C(C2)N(CC2CCC2)CCC314 (stereo not shown) [NB-76, 7-acetoxy-3-(cyclobutylmethyl)-4a-hydroxy-2,3,4,4a,5,6,7,7a-octahydro-1H-4,12-methanobenzofuro[3,2-e]isoquinolin-9-yl (2E,4E)-hexa-2,4-dienoate]
Analgesia (rat) (Sprague-Dawley rats): moderate
Stable in sGIF [1]: Yes
Stable in plasma [2]: No

O=C(/C=C/c1ccccc1)Oc1ccc2c3c1OC1C(O)CCC4(O)C(C2)N(CC2CCC2)CCC314 (stereo not shown) [NB-78, 3-(cyclobutylmethyl)-4a,7-dihydroxy-2,3,4,4a,5,6,7,7a-octahydro-1H-4,12-methanobenzofuro[3,2-e]isoquinolin-9-yl cinnamate]
analgesia in rats, in words (Sprague-Dawley rats): no analgesia
Analgesia (rat) (Sprague-Dawley rats): Inactive
Stable in sGIF [1]: Yes
Stable in plasma [2]: No

Oc1ccc2c3c1O[C@H]1[C@@H](O)CC[C@@]4(O)[C@@H](C2)N(CC2CCC2)CC[C@]314 [NB.HCl]
Randall-Selitto (g), individual animal (rats; Post-dose 0.5 hr): 78 g and 89 g and 93 g and 107 g and 134 g
Randall-Selitto (g), Mean (rats; Post-dose 0.5 hr): 100.2 g
Randall-Selitto (g), individual animal (rats; Post-dose 1 hr): 63 g and 62 g and 92 g and 90 g and 96 g
Randall-Selitto (g), Mean (rats; Post-dose 1 hr): 80.6 g
Randall-Selitto (g), individual animal (rats; Post-dose 2 hr): 58 g and 71 g and 103 g and 69 g and 93 g
Randall-Selitto (g), Mean (rats; Post-dose 2 hr): 78.8 g
Randall-Selitto (g), individual animal (rats; Post-dose 4 hr): 64 g and 66 g and 93 g (2×) and 61 g
Randall-Selitto (g), Mean (rats; Post-dose 4 hr): 75.4 g
Randall-Selitto (g), individual animal (rats; Post-dose 6 hr): 50 g and 71 g and 82 g and 69 g and 85 g
Randall-Selitto (g), Mean (rats; Post-dose 6 hr): 71.4 g
Randall-Selitto (g), individual animal (rats; Pre-treatment (baseline)): 89 g and 92 g and 100 g and 80 g and 91 g
Randall-Selitto (g), Mean (rats; Pre-treatment (baseline)): 90.4 g
